Here are results for nine molecules from patent US10590113B2, “6-hydroxy-4-oxo-1,4-dihydropyrimidine-5-carboxamides as APJ agonists” (priority 2016, dated 2020).

This assay concerns the target T1, human APJ receptor (Homo sapiens, UniProt P35414).
T1 construct: expressed in transfected cells; host or cells: HEK293
T1 sequence (P35414 1-380): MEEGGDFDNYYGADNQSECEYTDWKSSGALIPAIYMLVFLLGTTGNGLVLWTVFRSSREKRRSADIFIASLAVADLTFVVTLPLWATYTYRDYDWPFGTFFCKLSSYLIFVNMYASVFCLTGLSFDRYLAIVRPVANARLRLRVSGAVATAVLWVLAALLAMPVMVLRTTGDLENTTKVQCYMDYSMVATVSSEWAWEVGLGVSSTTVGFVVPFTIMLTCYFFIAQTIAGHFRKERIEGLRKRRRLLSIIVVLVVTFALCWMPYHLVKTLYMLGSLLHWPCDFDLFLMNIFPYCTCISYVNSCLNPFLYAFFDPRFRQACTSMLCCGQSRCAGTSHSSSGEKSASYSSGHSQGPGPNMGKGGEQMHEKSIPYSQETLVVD
Description: Intracellular cAMP Accumulation Assay (APJ hcAMP, HTRF). The note with it: human APJ, cAMP accumulation; potency range class; read-out: hAPJ cAMP EC50 Potency range. Type of assay: cell-based. Put shortly: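 Stably transfected HEK293 cells (5,000/well) incubated 30 min at room temperature with serially diluted compound, […] and 2 μM forskolin. cAMP measured by HTRF after 60 min with detection reagents, quantified against a cAMP standard curve; EC50 from variable-slope sigmoidal fit of inhibition of forskolin-stimulated cAMP.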
On the technique in general: Time-resolved FRET reads energy transfer from a long-lived donor to a nearby acceptor.

As for `CCc1cccc(CC)c1-n1c(-c2csc(C)n2)nc(=O)c(C(=O)N2CCC(c3ncc(F)cc3F)C2)c1O` (single isomer, unassigned) [Example 298, 1-(2,6-diethylphenyl)-5-[3-(3,5-difluoropyridin-2-yl)pyrrolidine-1-carbonyl]-6-hydroxy-2-(2-methyl-1,3-thiazol-4-yl)-1,4-dihydropyrimidin-4-one], the EC50 (usually the concentration giving half of the maximal effect) fell in the range of 0.01 to 10 nM.
The value for `CCc1cccc(CC)c1-n1c(-c2csc(C(C)C)n2)nc(=O)c(C(=O)N2CCC(c3ccc(F)cn3)C2)c1O` (single isomer, unassigned) [Example 300, 1-(2,6-diethylphenyl)-5-[3-(5-fluoropyridin-2-yl)pyrrolidine-1-carbonyl]-6-hydroxy-2-[2-(propan-2-yl)-1,3-thiazol-4-yl]-1,4-dihydropyrimidin-4-one] was 0.01 to 10 nM.
The value for `CCc1cccc(CC)c1-n1c(-c2csc(C)n2)nc(=O)c(C(=O)N2CCC(c3ncccc3F)C2)c1O` (single isomer, unassigned) [Example 302, 1-(2,6-diethylphenyl)-5-[3-(3-fluoropyridin-2-yl)pyrrolidine-1-carbonyl]-6-hydroxy-2-(2-methyl-1,3-thiazol-4-yl)-1,4-dihydropyrimidin-4-one] was 0.01 to 10 nM; that for `CCc1cccc(CC)c1-n1c(-c2nc(C)cs2)nc(=O)c(C(=O)N2CCC(c3ncc(Cl)cc3F)C2)c1O` (single isomer, unassigned) [Example 306, 5-[3-(5-chloro-3-fluoropyridin-2-yl)pyrrolidine-1-carbonyl]-1-(2,6-diethylphenyl)-6-hydroxy-2-(4-methyl-1,3-thiazol-2-yl)-1,4-dihydropyrimidin-4-one] was 0.01 to 10 nM; that for `CCc1cccc(CC)c1-n1c(-c2nc(C)cs2)nc(=O)c(C(=O)N2CCC(c3ncccc3F)C2)c1O` (single isomer, unassigned) [Example 307, 1-(2,6-diethylphenyl)-5-[3-(3-fluoropyridin-2-yl)pyrrolidine-1-carbonyl]-6-hydroxy-2-(4-methyl-1,3-thiazol-2-yl)-1,4-dihydropyrimidin-4-one] was 0.01 to 10 nM.
With `CCc1cccc(CC)c1-n1c(-c2ccn(CC)n2)nc(=O)c(C(=O)N2CCC(c3ncccc3F)C2)c1O` (single isomer, unassigned) [Example 308, 1-(2,6-diethylphenyl)-2-(1-ethyl-1H-pyrazol-3-yl)-5-[3-(3-fluoropyridin-2-yl)pyrrolidine-1-carbonyl]-6-hydroxy-1,4-dihydropyrimidin-4-one] the figure was 0.01 to 10 nM.
With `CCc1cccc(CC)c1-n1c(-c2ccn(CC)n2)nc(=O)c(C(=O)N2CCC(c3ncc(F)cc3F)C2)c1O` (single isomer, unassigned) [Example 309, 1-(2,6-diethylphenyl)-5-[3-(3,5-difluoropyridin-2-yl)pyrrolidine-1-carbonyl]-2-(1-ethyl-1H-pyrazol-3-yl)-6-hydroxy-1,4-dihydropyrimidin-4-one], the EC50 lay within 0.01 to 10 nM.
The value for `CCc1cccc(CC)c1-n1c(-c2cnn(CC)c2)nc(=O)c(C(=O)N2CCC(c3ccccc3F)C2)c1O` (single isomer, unassigned) [Example 310, 1-(2,6-diethylphenyl)-2-(1-ethyl-1H-pyrazol-4-yl)-5-[3-(2-fluorophenyl)pyrrolidine-1-carbonyl]-6-hydroxy-1,4-dihydropyrimidin-4-one] was 0.01 to 10 nM; that for `CCc1cccc(CC)c1-n1c(-c2ccn(CC)n2)nc(=O)c(C(=O)N2CCC(c3ncc(Cl)cc3F)C2)c1O` (single isomer, unassigned) [Example 311, 5-[3-(5-chloro-3-fluoropyridin-2-yl)pyrrolidine-1-carbonyl]-1-(2,6-diethylphenyl)-2-(1-ethyl-1H-pyrazol-3-yl)-6-hydroxy-1,4-dihydropyrimidin-4-one] was 0.01 to 10 nM.
